Paper PMC8619046, “ABCB1 and ABCG2 Control Brain Accumulation and Intestinal Disposition of the Novel ROS1/TRK/ALK Inhibitor Repotrectinib, While OATP1A/1B, ABCG2, and CYP3A Limit Its Oral Availability” (Pharmaceutics, 2021)
Values joined by “and” are separate entries in the source; they are usually repeats but may differ in a detail not shown here. Equal values may be shown once. Read-outs that look alike come from different tables or passages of the source.

Assay: 2-h oral plasma pharmacokinetics and tissue distribution, male wild-type and Oatp1a/1b−/− mice
Type: in vivo
Details: 10 mg/kg oral; for concentration at 2 h / Cmax / AUC(0-t) / Tmax / Kp at 2 h: mouse; for Cmax / AUC(0-t) / Tmax: plasma; for AUC(0-t): read-out: AUC0–2h; for Tmax: median (range); for Fold change (SIWC % of dose) / Fold change ratio (SIWC (%)-to-AUC0–2h) / Fold change ratio (SIWC (%)-to-plasma) / Fold change ratio (liver-to-plasma) / Fold increase CSIWC / Fold increase Cliver / Fold increase AUC0–2h: vs wild-type; for Kp at 2 h: male, po, read-out: Liver-to-plasma ratio
Source text: Mice with similar average ages (and body weights) were randomly allocated in experimental groups as far as possible. Mice were maintained in a temperature-controlled and specific pathogen-free environment with a 12-h light and 12-h dark cycle and they received a standard diet (Transbreed, SDS Diets, Technilab-BMI, Someren, The Netherlands) and acidified water ad libitum. […] Given the objective main readout (repotrectinib plasma and tissue concentrations as measured by LC-MS/MS), no blinding method was applied.
Repotrectinib was dissolved in dimethyl sulfoxide (DMSO) at a concentration of 50 mg/mL. This stock solution was first diluted 3-fold with ethanol/polysorbate 80 (1/1; v/v), followed by further dilution with a 10 mM hydrochloric acid solution, yielding a dosing solution of 1 mg/mL, freshly prepared on the day of experiment. Final concentrations of the solvents in the administration solution were: 2%, 2%, 2%, and 94% (all v/v) for DMSO, ethanol, polysorbate 80, and 10 mM hydrochloric acid solution, respectively.
To minimize variation in absorption upon oral administration, mice were fasted for 2–3 h before repotrectinib (10 mg/kg body weight) was administered by gavage into the stomach at 10 µL/g body weight, with a blunt-ended needle. Tail vein serial blood samples were collected at 0.125, 0.25, 0.5, 1, 2 and 4 h using heparinized capillary tubes (Sarstedt, Nümbrecht, Germany) for the 8-h experiments. For the 4- and 2-h experiments, blood samplings were performed from the tail vein with the same schedule, but terminated at 2 and 1 h, respectively. Eight, four, or two hours after oral administration, mice were deeply anesthetized with 2–3% isoflurane, followed by cardiac puncture to collect blood in Eppendorf tubes containing heparin as an anticoagulant. Brain, liver, spleen, kidney, lung, small intestine, and testis were rapidly collected after sacrificing the mice by cervical dislocation. The small intestinal contents (SIC) were separated from small intestinal tissue (SI), which was flushed and rinsed with cold saline to remove any residual feces. Brain, liver, spleen, kidney, lung, SI, SIC, and testis were homogenized with 1, 3, 1, 2, 1, 3, 2, and 1 mL of 2% BSA (w/v), respectively. Plasma fraction was isolated from blood by centrifugation at 9000× g for 6 min at 4 °C. All samples were stored at −30 °C until analysis.
A sensitive and specific liquid chromatography-tandem mass spectrometry method using protein precipitation pre-treatment was adopted to quantify the concentration of repotrectinib in DMEM medium, plasma samples and tissue homogenates.
A non-compartmental model using the PKSolver add-in program for Microsoft Excel was adopted to calculate the pharmacokinetic parameters of repotrectinib. Oral availability was assessed by the plasma area under the curve (AUC), calculated using repotrectinib plasma concentration-time curves with the linear trapezoidal rule without extrapolating the infinity. Statistical testing was performed in Graphpad Prism7 (Graphpad Software, La Jolla, CA, USA). All data are presented as geometric means ± SD. Heteroscedastic data were log-transformed before applying statistical analysis. When differences between two groups were compared, the two-sided unpaired Student’s t test was used. One-way analysis of variance (ANOVA) was applied when multiple groups were compared, and the Bonferroni post hoc correction was used to accommodate multiple testing. Differences were considered statistically significant when P < 0.05.

[1] = Oatp1a/1b−/− (>99% FVB background), male Oatp1a/1b−/− mice
[2] = male Oatp1a/1b−/− mice vs wild-type
[3] = wild-type (>99% FVB background), male wild-type mice

## C[C@H]1CNC(=O)c2cnn3ccc(nc23)N[C@H](C)c2cc(F)ccc2O1 [repotrectinib]
FVB, small intestine with content, male wild-type mice, read-out: CSIWC
  concentration at 2 h: 84700 ± 24100 ng/g
Oatp1a/1b−/− (>99% FVB background), liver, male Oatp1a/1b−/− mice, read-out: Cliver
  concentration at 2 h: 15300 ± 1600 ng/g
[1]
  Cmax: 5380 ± 520 ng/mL
  AUC(0-t): 8960 ± 770 ng·h/mL
  Tmax: 30 min
Oatp1a/1b−/− (>99% FVB background), small intestine with content, male Oatp1a/1b−/− mice, read-out: CSIWC
  concentration at 2 h: 121000 ± 29200 ng/g
[2]
  liver-to-plasma ratio, fold reduction: 2.3 fold
  relative intestinal (SIWC) recovery corrected for plasma concentration, fold decrease: 2.8 fold
  relative intestinal (SIWC) recovery corrected for plasma exposure (AUC0–2h), fold decrease: 1.9 fold
Male Oatp1a/1b−/− mice
  SIWC (% of dose): 21.3 ± 3.7 % of dose
  SIWC (%)-to-AUC0–2h ratio: 2.40 ± 0.54 *** ·10^−3
  SIWC (%)-to-plasma ratio: 5.58 ± 1.09 *** ·10^−3
  Fold change (SIWC % of dose): 1.22
  Fold change ratio (SIWC (%)-to-AUC0–2h): 0.52
  Fold change ratio (SIWC (%)-to-plasma): 0.35
  Fold change ratio (liver-to-plasma): 0.44
  Fold increase CSIWC: 1.43
  Fold increase Cliver: 1.55
Male Oatp1a/1b−/− mice, 10 mg/kg
  Fold increase AUC0–2h: 2.3 and 2.29
Male wild-type mice
  SIWC (% of dose): 17.4 ± 5.6 % of dose
  SIWC (%)-to-AUC0–2h ratio: 4.59 ± 1.04 ·10^−3
  SIWC (%)-to-plasma ratio: 15.8 ± 3.9 ·10^−3
  Fold change (SIWC % of dose): 1.00
  Fold change ratio (SIWC (%)-to-AUC0–2h): 1.00
  Fold change ratio (SIWC (%)-to-plasma): 1.00
  Fold change ratio (liver-to-plasma): 1.00
  Fold increase AUC0–2h: 1.00
  Fold increase CSIWC: 1.00
  Fold increase Cliver: 1.00
FVB, liver, 10 mg/kg, male Oatp1a/1b−/− mice
  Kp at 2 h: 4 ± 0.54
FVB, liver, 10 mg/kg, male wild-type mice
  Kp at 2 h: 9.16 ± 1.53
wild-type (>99% FVB background), liver, male wild-type mice, read-out: Cliver
  concentration at 2 h: 9840 ± 1160 ng/g
[3]
  Cmax: 2640 ± 990 ng/mL
  AUC(0-t): 3920 ± 1290 ng·h/mL
  Tmax: 30 min
